The text below walks through data of patent publication EP2717965B1, “USE OF EPSILON-POLY-L-LYSINE FOR INCREASING THE BIOAVAILABILITY OF ANTIMICROBIAL PEPTIDES IN THE HUMAN SKIN” (Beiersdorf AG, priority 2011, dated 2017).

Like-named read-outs stand apart in the source and are kept apart here.

The subject of assay [1] is hBD3. As to conditions: 50 µl of 1% solution in Citratpuffer pH 6 on inner forearm, 4h, rinse with 0,5 ml buffer; control Citratpuffer.
Procedure: 50 µl einer 1%igen wässrigen gepufferten Lösung (Citratpuffer pH 6)von ePL wurden auf die Innenseite des Unterarms von Probanden gegeben. Als Kontrolle diente die Applikation von Citratpuffer ohne ePL. Nach 4h Inkubation wurden die Hautareale mit 0,5 ml Pufferlösung gespült und die Konzentration hBD3 im Eluat mit Hilfe eines ELISAs quantifiziert.
Als Kontrolle diente Citratpuffer, in dem die Wirkstoffe gelöst wurden. (n=8)
Assay [2] deals with hBD3. The assay can be described thus: hBD3 secretion of cultured human epidermal keratinocytes, ELISA of cell culture supernatant. It counts as cell-based, humane epidermale Keratinozyten. Particulars: 24 Stunden incubation. From the text: In vitro kultivierte humane epidermale Keratinozyten wurden in Zellkultur Medium mit ε-Poly-L-Lysin in einem Konzentrationsbereich von 0,001-0,1% für 24 Stunden inkubiert. Anschließend wurde die Konzentration an hBD3 im Zellkulturüberstand mittels ELISA quantifiziert.
Abb. 1: Dosisabhängige hBD3 Expression von humanen epidermalen Keratinozyten, die über einen Zeitraum von 24 Stunden mit ePL kultiviert wurden.
Abbildung 1 zeigt die dosisabhängige hBD3 Freisetzung von mit ePL inkubierten Keratinozyten. Kontrollzellen zeigten nur eine geringfüge basale hBD3 Menge.
A general note: An ELISA detects its analyte on a solid surface through an enzyme-linked reagent.

The test system of assay [3] is hBD3. The assay can be described thus: hBD3 in forearm skin rinses of volunteers after topical application, ELISA of eluate. Particulars: 50 µl of 1% solution in Citratpuffer pH 6 on inner forearm, 4h, rinse with 0,5 ml buffer; control Citratpuffer. In kind it is in vivo, Probanden. From the text: Abb. […] Als Kontrolle wurde Citratpuffer appliziert. (n=7)

`NCCCC[C@H](N)C(=O)O` [Lysin, L-Lysin]: in assay [1], the hBD3-Steigerung entry is “nicht aber bei der freien Aminosäure eine hBD3-Steigerung”.
“Poly[imino[(2S)-2-amino-1-oxo-1,6-hexandiyl]] [ePL]”: the “hBD3 Sekretion” value in assay [2] (0,01% und 0,1% in cell culture medium, compared with 0,001%) was “steigerte nochmals die hBD3 Sekretion deutlich”. For the same molecule, in assay [2] (0,001% in cell culture medium, versus control cells), the “hBD3 Sekretion der Keratinozyten” value is reported as “signifikante Erhöhung (p<0,001)”. Also, in assay [3], the hBD3-Steigerung result is recorded as “gleichermaßen wirksam”.
In the case of alpha-Polylysin, the hBD3-Steigerung result in assay [3] is “gleichermaßen wirksam”.
In the case of `NCC(=O)O` [Glycin], the hBD3-Steigerung result in assay [1] is reported as “nur beim peptidisch verknüpften Lysin”.
